The text below walks through data of patent publication US20200215169A1, “ANTIBACTERIAL METHODS AND RELATED KITS” (THE HENRY M. JACKSON FOUNDATION FOR THE ADVANCEMENT OF …, priority 2017, published 2020).

Entries after “also recorded” stand apart in the source; their conditions may differ.

Data set [1] relates to E. faecalis OG1RF and Δeep biofilms. The experiment in a line: Biofilm biomass quantified by safranin staining, OD450 nm, 96-well polystyrene plates. Type of data set: cell-based, Enterococcus faecalis. The procedure:
Biofilms of the two strains were grown overnight in tryptic soy broth without added glucose in the wells of 96-well polystyrene plates at 37° C. The liquid cultures were removed from the plate, and the material remaining in the wells (i.e., the biomass) was washed five times with sterile water.
Both OG1RF and Δeep were streaked on Brain Heart Infusion (BHI) agar plates and incubated at room temperature for two days. Three colonies from each strain were inoculated in BHI broth and incubated overnight at 37° C. 96-well microtiter plate biofilm assays were performed using the overnight cultures diluted in Tryptic Soy Broth (TSB). Biofilm plates were incubated overnight at 37° C. in a moist environment. The microtiter plate was washed with sterile water. […] After incubation, the microtiter plate was washed again with sterile water and left to dry until water was absent in the wells. The plate was stained with safranin, washed again with sterile water, and then read on a plate reader to determine the amount of biofilm in the wells.

Data set [2] relates to E. faecalis OG1RF biofilms. The following applies: cited from earlier work.
Data set [3] concerns E. faecalis OG1RF and Δeep biofilms. The data set is described as follows: Viable cells (CFU) recovered from biofilm biomass after treatment. As to conditions: for decrease in viable biofilm cells: three-hour exposure. The procedure:
(§1) Cells were scraped up from the wells of the 96-well plate following the post-treatment washing step, as described above. The scraped up cells were serially diluted and plated to assess the number of colony forming units (CFU) recovered per ml (CFU/ml).
The bacteria were then diluted (10^0-10^−7), and plated on Brain Heart Infusion (BHI) plates. The plates were incubated overnight at 37° C.
These solutions were diluted by serial 10-fold dilutions, and then aliquots of each dilution were plated on BHI agar plates to enumerate the number of viable bacteria present in each solution. In addition, the biofilms in the plate were washed, and then two wells of OG1RF biofilms and two wells of Δeep biofilms were removed by scraping manually with a pipette tip and resuspended in potassium phosphate buffered saline. These dislodged biofilm cell solutions were also diluted by serial 10-fold dilutions, and then aliquots of each dilution were plated on BHI agar plates to enumerate the viable bacteria present in each sample. Finally, the remainder of the biofilm wells were allowed to dry for several hours, and then the biomass in each well was stained with safranin. Excess safranin was washed away, and the plates were dried again. Biofilm biomass was quantified by reading the optical density of safranin-stained wells at OD450 nm.

A further data set relates to E. faecalis OG1RF. The following applies: cited from earlier work.
Data set [4] deals with E. faecalis strains DS16, FA2-2, JH2-2, VA1128, V583 and 39-5 biofilms. The experiment in a line: Viable cells (CFU) recovered from biofilms, laboratory strains and clinical isolates. The following applies: all tested strains, methods of Example 1. It is filed as cell-based, Enterococcus faecalis.
Excerpt: as §1

The test system is the same in data set [5]. The data set is described as follows: Biofilm biomass by safranin staining, laboratory strains and clinical isolates. It is filed as cell-based, Enterococcus faecalis. The following applies: strains DS16, VA1128 and V583, methods of Example 1. The procedure:
Biofilms of the two strains were grown overnight in tryptic soy broth without added glucose in the wells of 96-well polystyrene plates at 37° C. The liquid cultures were removed from the plate, and the material remaining in the wells (i.e., the biomass) was washed five times with sterile water. […] Following incubation, the lysozyme or buffer solutions were removed, and the wells were washed again as above.
E. faecalis strains DS16, FA2-2, JH2-2, and 39-5 are strains that have been used for laboratory experiments for many years, and E. faecalis strain V583 is a vancomycin-resistant strain that has become the prototype lab strain for studies of vancomycin-resistant E. faecalis. E. faecalis strain VA1128 is a clinical isolate.

Data set [6] deals with E. faecalis OG1RF and Δeep biofilms. The experiment in a line: Viable cells in the treatment solution (supernatant) removed from biofilms, dispersal check. It is filed as cell-based, Enterococcus faecalis. As to conditions: 5 mg/ml hen egg white lysozyme, 3 h, 37° C., either strain. The procedure: To conduct this experiment, the number of viable cells that were present in the buffer or lysozyme solution that was removed from the biofilms following exposure was measured. If viable cells were dispersed from the biofilm following treatment, then one should be able to enumerate viable cells in the lysozyme solution removed from the treated wells.
In this experiment, biofilms of E. faecalis OG1RF and Δeep were grown in 96-well microtiter plates overnight. The biofilms were washed to remove non-adherent cells.

The subject of data set [7] is planktonic E. faecalis OG1RF and Δeep cells. The data set is described as follows: Viability of planktonic logarithmic and stationary phase cells exposed to lysozyme. The following applies: 2.5 mg/ml lysozyme, 6 hours. Type of data set: cell-based, Enterococcus faecalis. The procedure: Early logarithmic cultures were prepared by diluting overnight cultures 1:100 in BHI broth. To obtain stationary phase cells, BHI broth was inoculated with 3 individual colonies and cultivated for about 18 hours. […] Cultures to which sterile water was added served as controls. Cultures were incubated at 37° C. for 6 hours.

The mark [8] stands for this setting: 128 μg/ml ampicillin in water, 3 h, OG1RF and Δeep.

As to `CC1(C)S[C@@H]2[C@H](NC(=O)[C@H](N)c3ccccc3)C(=O)N2[C@H]1C(=O)O` [ampicillin, reference compound], the “change in biofilm biomass” value in data set [1] (setting [8]) was “no changes; also recorded: resistant to any effect”. In addition, in data set [2], the “ampicillin concentration to which biofilms are resistant” value is > 128 µg/mL. Further, the “change in biofilm cell viability” value in data set [3] (setting [8]) is on record as “no changes; also recorded: resistant to any effect”. The “susceptibility in planktonic conditions” value with E. faecalis OG1RF is given as “susceptible”.

On to “Human lysozyme: purified, recombinant human lysozyme available for purchase”, for which the “increase in stained biomass” value in data set [1] (recombinant human lysozyme versus buffer) was “approximately 3.5 fold”. The “decrease in viable cells” value in data set [3] (OG1RF and Δeep, recombinant human lysozyme) is given as > 99.9%. The “reduction of viable cells recovered from biofilms” value in data set [3] (OG1RF, recombinant human lysozyme) is given as 3.2 log 10 CFU/ml; in data set [3] (Δeep, recombinant human lysozyme), 4.0 log 10 CFU/ml.

Regarding “lysozyme: hen egg white lysozyme (EC 3.2.1.17), enzyme that hydrolyzes beta-1,4-linkages of bacterial cell wall peptidoglycan”, the “viable cells recovered from biofilms” value in data set [4] is “reduced the number of viable cells”. In addition, in data set [1] (1.25 mg/ml lysozyme), the “increase in stained biomass among 0.156, 1.25 and 5 mg/ml” value is given as “largest increase”. Moreover, the “biofilm biomass (safranin staining) versus buffer” value in data set [1] (5 mg/ml hen egg white lysozyme, 3 h, 37° C., OG1RF and Δeep) is “increased biofilm biomass of equal magnitude for both strains; also recorded: increased equally for both strains; also recorded: greater than the staining in untreated wells”. For the same compound, the “stained biomass at 6 hours compared to 3 hours” value in data set [1] (5 mg/ml lysozyme, 37° C.) is on record as “increased slightly”. In addition, the “biofilm biomass after treatment” value in data set [5] is “increased, to some extent”. In addition, in data set [6], the “viable cells in lysozyme supernatant” value is “no viable cells above the limit of detection”. In addition, the “viable cells recovered from biofilm at 6 and 24 hours compared to 3 hours” value in data set [3] (5 mg/ml lysozyme, 37° C.) is “dropped slightly”. Besides, the “drop in viable cells recovered from biofilm” value in data set [3] (OG1RF, 5 mg/ml lysozyme, 3 h, difference in means of 3 biological replicates) is 2.8 log 10 CFU/ml. Further, the “decrease in viable biofilm cells” value in data set [3] (OG1RF, 5 mg/ml lysozyme) was determined as 99.8%; in data set [3] (Δeep, 5 mg/ml lysozyme) it was 99.9%. The “viability of biofilm cells versus untreated or buffer (in words)” value in data set [3] (lysozyme-treated OG1RF and Δeep biofilms) is on record as “fewer living cells than the untreated strains; also recorded: displayed killing; also recorded: decreased the number of viable biofilm cells”. The “decrease in viable cells” value in data set [7] (OG1RF and Δeep, stationary phase) was “about 1.5 log 10 CFU/ml”; in data set [7] (OG1RF, logarithmic growth) it was “no decrease”.
